Consider ten molecules from ChEMBL document CHEMBL1201862, “PubChem BioAssay data set” (2004).

Structures are written as SMILES.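 Compound exposure: 48 hours, 5 concentrations, 96-well plates. Here, GI50 denotes the concentration required for 50% inhibition of growth.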 Activity calls are given as the source filed them. Rule as the data show it: active = GI50 up to about 1.1 µM and inactive = higher. Where a SMILES comes first, the peptide text is derived from it. [ ]: non-standard residue; d: D form. The star is where a group is joined. Phe(4-NO2) = N[CH](Cc1ccc([N+](=O)[O-])cc1)C(=O)O; Cbz = O=C(OCc1ccccc1)* Some results are limits rather than exact numbers.

Among the test systems are MDA-MB-231; SNB-75; TK-10; UO-31; SR; PC-3; A549; SK-MEL-28; HT-29; CAKI-1; SK-OV-3; DU-145; HCT-15; KM12; LOX IMVI; T47D; Malme-3M; SNB-19; NCI/ADR-RES; A498.
Test in all cases: inhibition of tumour cell growth, NCI panel, 48 h

For the molecule `CCCCCCOP(=O)(OCCCCCC)OC(C(=O)OC)C(F)(F)F` (centres undefined), the GI50 in the assay with MDA-MB-231, in the assay with SNB-75, in the assay with TK-10, in the assay with UO-31, in the assay with SR and in the assay with PC-3 was > 100 µM (inactive) throughout. For the same molecule, the GI50 in the assay on A549, with SK-MEL-28, in the assay with HT-29, in the assay on CAKI-1, with SK-OV-3 and with DU-145 was > 100 µM (inactive) each time. The GI50 with HCT-15 is greater than 100 µM; in the assay on KM12, > 100 µM (inactive); in the assay with LOX IMVI, > 100 µM (inactive); with T47D, > 100 µM (inactive); in the assay on Malme-3M, > 100 µM (inactive); in the assay with SNB-19, > 100 µM (inactive). In the assay with NCI/ADR-RES, the GI50 was > 100 µM (inactive).
Take `Cc1nc2ccccc2n1Cc1nnc(N)o1`: the GI50 in the assay on MDA-MB-231, in the assay on SNB-75, in the assay with TK-10, in the assay with UO-31, in the assay on SR and with PC-3 was > 100 µM (inactive) in each case. Also, the GI50 was 53.3 µM (inactive) in the assay on A549; > 100 µM (inactive) with A498; > 100 µM (inactive) with SK-MEL-28; > 100 µM (inactive) in the assay with HT-29; > 100 µM (inactive) in the assay with SK-OV-3; > 100 µM (inactive) in the assay with DU-145. Also, the GI50 in the assay on HCT-15 is greater than 100 µM; with KM12, > 100 µM (inactive); in the assay with LOX IMVI it was > 100 µM (inactive); in the assay with T47D it was > 100 µM (inactive); in the assay with Malme-3M, > 100 µM (inactive); with SNB-19 it was > 100 µM (inactive). The GI50 in the assay on NCI/ADR-RES is > 100 µM (inactive).
As to `CCC(=O)N/S(=N/S(=O)(=O)c1ccccc1)C(Cl)(Cl)Cl` (centres undefined), the GI50 in the assay with MDA-MB-231, with SNB-75, in the assay with TK-10, in the assay with UO-31, in the assay on SR and in the assay on PC-3 was > 100 µM (inactive) throughout. Besides, the GI50 in the assay with A549, with A498, with SK-MEL-28, in the assay on HT-29, with SK-OV-3 and with DU-145 was > 100 µM (inactive) in each case. The GI50 in the assay with HCT-15 was greater than 100 µM; in the assay with KM12 it was > 100 µM (inactive); with LOX IMVI, > 100 µM (inactive); in the assay on T47D, > 100 µM (inactive); in the assay with Malme-3M, > 100 µM (inactive); in the assay on SNB-19, > 100 µM (inactive). Besides, the GI50 in the assay with NCI/ADR-RES was > 100 µM (inactive).
Consider `CCN(CCCN(CC)C(=O)Nc1ccccc1)C(=O)Nc1ccccc1`, for which the GI50 with MDA-MB-231, with SNB-75, in the assay with TK-10, in the assay with UO-31, in the assay on SR and in the assay with PC-3 was > 100 µM (inactive) throughout. For the same molecule, the GI50 in the assay on A549, in the assay on SK-MEL-28, with HT-29, with CAKI-1, in the assay with SK-OV-3 and in the assay on DU-145 was > 100 µM (inactive) each time. Also, the GI50 is greater than 100 µM with HCT-15; > 100 µM (inactive) in the assay on KM12; > 100 µM (inactive) in the assay on LOX IMVI; > 100 µM (inactive) in the assay with T47D; 66.1 µM (inactive) in the assay on Malme-3M; > 100 µM (inactive) in the assay on SNB-19. In addition, in the assay with NCI/ADR-RES, the GI50 was > 100 µM (inactive).
Take `Cc1nc(N/N=C/c2ccccc2Cl)[nH]c(=O)c1CCO`: the GI50 is 71 µM (inactive) in the assay on MDA-MB-231; 17.2 µM (inactive) in the assay on SNB-75; 76 µM (inactive) in the assay with TK-10; > 100 µM (inactive) in the assay with UO-31; > 100 µM (inactive) in the assay on SR; > 100 µM (inactive) in the assay with PC-3. For the same molecule, the GI50 was > 100 µM (inactive) in the assay on A549; 73.8 µM (inactive) in the assay on SK-MEL-28; > 100 µM (inactive) in the assay with HT-29; > 10 µM (inactive) with CAKI-1; 23.1 µM (inactive) in the assay on SK-OV-3; > 100 µM (inactive) in the assay on DU-145. The GI50 is 81.1 µM in the assay on HCT-15; 59.7 µM (inactive) in the assay with KM12; > 100 µM (inactive) in the assay on LOX IMVI; 24.8 µM (inactive) in the assay with T47D; 22 µM (inactive) with Malme-3M; 51.6 µM (inactive) with SNB-19. For the same molecule, the GI50 with NCI/ADR-RES was 61.1 µM (inactive).
As for `CCSCC(=O)N1CCc2c([nH]c3ccccc23)C1=O`, the GI50 in the assay on MDA-MB-231 is > 100 µM (inactive); in the assay on SNB-75 it was 78 µM (inactive); in the assay on TK-10 it was > 100 µM (inactive); with UO-31, > 100 µM (inactive); with SR it was > 100 µM (inactive); in the assay on PC-3 it was > 100 µM (inactive). The GI50 in the assay on A549, with SK-MEL-28, in the assay on HT-29, in the assay with CAKI-1, with SK-OV-3 and with DU-145 was > 100 µM (inactive) each time. Besides, the GI50 with HCT-15 is greater than 100 µM; in the assay with KM12, > 100 µM (inactive); in the assay on LOX IMVI, > 100 µM (inactive); in the assay on T47D, > 100 µM (inactive); in the assay with Malme-3M it was > 100 µM (inactive); in the assay on SNB-19, > 100 µM (inactive). For the same molecule, the GI50 in the assay on NCI/ADR-RES was > 100 µM (inactive).
As for `O=c1n(N=[S+]([O-])(c2ccccc2)c2ccccc2)c(=O)n2n1C1C=CC2CC1`, the GI50 in the assay on MDA-MB-231, in the assay with SNB-75, in the assay with TK-10, in the assay with UO-31, in the assay with SR and in the assay on PC-3 was > 100 µM (inactive) each time. In addition, the GI50 in the assay on A549, in the assay on A498, in the assay with SK-MEL-28, in the assay with HT-29, in the assay with CAKI-1 and in the assay on SK-OV-3 was > 100 µM (inactive) throughout. For the same molecule, the GI50 in the assay with DU-145 is > 100 µM (inactive); in the assay with HCT-15 it was greater than 100 µM; with KM12, > 100 µM (inactive); in the assay with LOX IMVI it was > 100 µM (inactive); in the assay on T47D, > 100 µM (inactive); with SNB-19, > 100 µM (inactive). Besides, the GI50 in the assay on NCI/ADR-RES is > 100 µM (inactive).
Turning to `COc1ccc(OC)c2c(=O)cc(-c3ccccc3)[nH]c12`, the GI50 with MDA-MB-231 is > 100 µM (inactive); with SNB-75 it was 93.3 µM (inactive); with TK-10, > 100 µM (inactive); with UO-31, > 100 µM (inactive); with SR it was > 100 µM (inactive); in the assay with PC-3, > 100 µM (inactive). Besides, the GI50 with A549, with A498, with SK-MEL-28, in the assay on HT-29, with SK-OV-3 and in the assay with DU-145 was > 100 µM (inactive) each time. Also, the GI50 is greater than 100 µM with HCT-15; > 100 µM (inactive) in the assay with KM12; > 100 µM (inactive) with LOX IMVI; > 100 µM (inactive) in the assay on T47D; > 100 µM (inactive) in the assay on Malme-3M; > 100 µM (inactive) in the assay with SNB-19. The GI50 in the assay with NCI/ADR-RES is > 100 µM (inactive).
In the case of `O=C(/C=C\c1ccccc1)N1CCc2ccccc2C1`, the GI50 in the assay with MDA-MB-231 is > 100 µM (inactive); in the assay on SNB-75 it was 52.7 µM (inactive); in the assay with TK-10, > 100 µM (inactive); in the assay on UO-31 it was 39 µM (inactive); in the assay on SR it was 24.1 µM (inactive); in the assay on PC-3, 34.4 µM (inactive). Moreover, the GI50 in the assay with A498 was 53.2 µM (inactive); in the assay on SK-MEL-28, 61 µM (inactive); with HT-29 it was 51.4 µM (inactive); in the assay with CAKI-1, 67.1 µM (inactive); in the assay with SK-OV-3 it was > 100 µM (inactive); in the assay on DU-145 it was > 100 µM (inactive). The GI50 in the assay with HCT-15 was 55.8 µM; in the assay with KM12 it was 36.5 µM (inactive); in the assay on LOX IMVI, 79.1 µM (inactive); in the assay with T47D, 20.1 µM (inactive); in the assay with SNB-19, 67.8 µM (inactive); with NCI/ADR-RES it was 44 µM (inactive).
In the case of `CCOC(=O)CCC(NC(=O)OCc1ccccc1)C(=O)NC(CCC(=O)OCC)C(=O)NC(Cc1ccc([N+](=O)[O-])cc1)C(=O)NC(CCC(=O)OCC)C(=O)NC(CCC(=O)OCC)C(=O)OCC` (centres undefined) (Cbz-E(OEt)E(OEt)[Phe(4-NO2)]E(OEt)E(OEt)-OEt; configuration not given here), the GI50 with MDA-MB-231, in the assay on SNB-75, with TK-10, in the assay with UO-31, in the assay on SR and in the assay with PC-3 was > 100 µM (inactive) each time. The GI50 with A549, in the assay with SK-MEL-28, in the assay on HT-29, with CAKI-1, in the assay on SK-OV-3 and with DU-145 was > 100 µM (inactive) throughout. The GI50 with HCT-15 was greater than 100 µM; in the assay with KM12, > 100 µM (inactive); in the assay with LOX IMVI, > 100 µM (inactive); with T47D it was > 100 µM (inactive); in the assay on Malme-3M, > 100 µM (inactive); in the assay with SNB-19, > 100 µM (inactive). Moreover, the GI50 in the assay with NCI/ADR-RES is > 100 µM (inactive).
